From patent publication US8889662B2, “Method to alter sex ratios in avian offspring” (University of Georgia Research Foundation, Inc., priority 2009, dated 2014)
“And” between values parts separate entries of the source, which are not always exact repeats. Equal values may be shown once.

Key:
[1] = tested on: zebra finch (Taeniopygia guttata); experiment: Example 2: primary sex ratio after hormone injection five hours before ovulation, zebra finches; format: in vivo
Method: Zebra finch (Taeniopygia guttata) pairs obtained from a breeding colony maintained at The University of Georgia were housed in individual cages and provided feed and water ad libidumn. Birds were kept under a 14 hour (h) light (L):10 h dark (D) light schedule. Egg-laying was monitored daily and eggs marked to record sequence order. Females were injected intraperitoneally after the first or second egg of the clutch was laid with one of three treatments: 20 μg of CORT dissolved in 50 μl peanut oil and 10% ethanol (CORT), 20 μg of progesterone dissolved in […] and 10% ethanol (P), or 50 μl of control peanut oil (C). A fourth set of females received no injection treatment (UN). […] The follicle ovulating 5 hours after injection, was laid approximately 36 hours after injection (FIG. 3). Ovulating follicles exposed to treatments were laid as the 3rd or 4th egg in the sequence (3rd egg if treatment was administered on the day the 1st egg was laid and the 4th egg in the sequence if treatment was administered on the day the 2nd egg was laid). Eggs were allowed to incubate in the nest for 8-12 days prior to collection to allow sufficient embryonic development for DNA extraction and molecular sexing analyses. Occasionally these treatments disrupted the oviposition immediately following the injection. Females that delayed oviposition after treatment were excluded from analysis because it was not possible to determine whether the egg collected the following day was from the ovulation event that occurred immediately following injection or from a delayed oviposition of the follicle ovulated the day prior to injection. Females that delayed oviposition were allowed to complete the clutch after which the treatment was repeated during the next clutch. […] Only 1/10 females treated with progesterone laid successfully. For this reason, progesterone treatments were eliminated from further analyses.
Molecular Sexing. Genomic DNA was extracted from embryonic tissue using a standard salt extraction method (Lambert et al., 2000, Journal of Neuroscience Methods; 95:127-132). Portions of the W-linked avian CHD (CHD-W) on females and its non W-linked homologue (CHD-Z) were amplified using polymerase chain reaction (PCR) with primers P2 and P8 (Griffiths et al., 1998, Mol Ecol; 7:1071-1075). […] The presence of the W chromosome was determined through the visualization of two bands while males were identified when only one band was produced.
Twenty-one target embryos were successfully sexed from control females, 16 from non-injected females, and 18 from CORT treated females. […] Differences in the number of females that produced males was analyzed among treatment groups by performing a logistic regression in StatView (SAS Institute, Cary, N.C. USA) using sex as the response variable (male=1). […]

[2] = tested on: Hyline W-36 and Brown layer hens; experiment: Example 3: offspring sex ratio after acute corticosterone injection five hours before ovulation, laying hens; format: in vivo, chicken
Method: Hyline W-36 and Brown layer hens were housed in individual layer cages in a single room, had ad libitum access to food and water, and maintained on a 14 h L:10 h D light schedule. Hens were artificially inseminated biweekly with pooled semen from 8 roosters to ensure egg fertilization. Hens were monitored throughout the day for egg-laying and eggs were collected manually every 2 h during peak-laying hours. Previous studies in laying hens have shown that ovulation occurs within 30 minutes of oviposition (Johnson, A. L. Reproduction in the female, in Sturkie's Avian Physiology. G. C. Whittow, Editor. 2000, Academic Press: New York, N.Y. p. 569-596); therefore, egg laying patterns can be used to predict the timing of ovulation.
Injection treatments were administered to hens subcutaneously in the back of the neck five hours prior to the predicted time of ovulation with one of the following treatments: 0.5 ml of control peanut oil (CONT) or 1.5 mg corticosterone dissolved in 0.5 ml of peanut oil (CORT). Ovulated follicles took 24 h to pass through the remainder of the reproductive tract and were collected at oviposition (FIG. 6). […]
Statistical Analysis. […] Plasma corticosterone concentrations were analyzed among treatment groups and time points using an ANOVA and differences among individual treatment groups were analyzed using Fisher's PLSD. […]

[3] = chickens, previous work; cited from earlier work

Structure (SMILES): C[C@]12C[C@H](O)[C@H]3[C@@H](CCC4=CC(=O)CC[C@@]43C)[C@@H]1CC[C@@H]2C(=O)CO [corticosterone]
- males produced (primary sex ratio) ([1]; 20 ug intraperitoneally five hours before ovulation, 3rd or 4th egg, control injected 61.9%, uninjected 37.5%): 72%
- male embryos produced compared to non-manipulated females (FIG. 5 legend) ([1]; 20 ug, no significant difference from control injected females): produced significantly more male embryos
- Proportion male ([1]; eggs laid before treatment by the same treatment group (baseline)): 0.4375
- Proportion male ([1]; target eggs (Treatment), 20 ug): 0.72
- males produced (offspring sex ratio) ([2]; 1.5 mg in 0.5 ml peanut oil subcutaneously five hours before ovulation, p=0.01 vs all hens the day before, p=0.72 vs control injection): ~83% and 82.6%
- males produced after treatment compared to before treatment, same hens ([2]; 1.5 mg, target versus pre-target eggs, p=0.02): produced significantly more males
- duration of elevated CORT concentrations following injection [3]: approximately 90 minutes
